In article PMC11679793, “Structure-Activity Relationship Study of Majusculamide D: Overcoming Metabolic Instability and Severe Toxicity with a Fluoro Analogue” (Marine Drugs, 2024):

Assay: Serum biochemical analysis and H&E histology of liver and kidney
Assay type: in vivo, mice
Conditions: 5 mg/kg every other day, 14 days
Method: In the biochemical and histological assays, 1n (5 mg/kg) and 1a (5 mg/kg) were administered to mice every other day, with the control group receiving an equivalent dose of saline. Following 14 days, mouse serum was collected for biochemical analysis, and organs were fixed for histological examination. […] In comparison, the liver tissues of the 1n-treated and control groups were normal.
Mice were euthanized, and liver and kidney tissues were collected and fixed in 10% neutral-buffered formalin for 48 h. The fixed tissues were processed for paraffin embedding, including dehydration in a graded ethanol series, clearing with xylene, and infiltration with molten paraffin wax. Paraffin blocks were sectioned into 4 μm slices using a rotary microtome, and the sections were mounted onto glass slides. The slides were dried at 60 °C for 4 h to ensure proper tissue adhesion. Following deparaffinization and rehydration, staining was performed according to the manufacturer’s instructions for the H&E staining kit (Solarbio, China). The sections were immersed in a hematoxylin solution for 3 min to stain the nuclei and then rinsed under running tap water for 1 minute to remove excess stain. Differentiation was achieved by briefly immersing the slides in a 1% hydrochloric acid-ethanol solution, followed by neutralization in 0.6% ammonia water until the nuclei appeared blue. Eosin staining was applied for 30 s to stain cytoplasmic and extracellular components, imparting a pink coloration. The slides were rinsed under running tap water for 30 s to remove excess eosin. Finally, the sections were dehydrated through a graded ethanol series, cleared with xylene, and coverslipped with a neutral resin mounting medium to preserve the stained tissues for microscopic examination.

With CCCCC(C)CC(C)C(=O)N(C)C(Cc1ccc(OC)cc1)C(=O)NC(C(=O)N(C)C(C(=O)N1CC(O)CC1C(=O)N1C(=O)C=CC1C)C(C)C)C(C)OC(C)=O (stereo not drawn) [Compound 1a, Majusculamide D] the “kidney tissue H&E histology” value was “no significant pathological differences”, the “liver tissue H&E histology” value was “signs of hepatocyte necrosis and disruption of the hepatic cord structure” and the “serum ALT and AST levels compared to the control group” value (n = 3) was “substantially elevated”.
